Earlier results as cited in patent US20260240156A1, “OIL-BASED DISPERSION COMPOSITIONS OF SOLID PARTICULATE HYGROSCOPIC OR WATER-SOLUBLE PESTICIDES” (priority 2023, published 2026).

Conditions: in water compared to non-aqueous systems

In the case of CC1=NNC(=O)N(/N=C/c2cccnc2)C1 [Pymetrozine, 6-methyl-4-[(E)-(pyridin-3ylmethylene)amino]-4,5-dihydro-2H-[1,2,4]-triazin-3-one], the Photodegradation is given as “significantly faster in water compared to non-aqueous systems”.
